{"source": "ChEMBL document CHEMBL1201862", "about": "“PubChem BioAssay data set” (2004)", "key": {"[1]": {"target": "T1, Carboxy-terminal domain RNA polymerase II polypeptide A small phosphatase 1 (Homo sapiens, UniProt Q9GZU7)", "T1 sequence (Q9GZU7 whole entry)": "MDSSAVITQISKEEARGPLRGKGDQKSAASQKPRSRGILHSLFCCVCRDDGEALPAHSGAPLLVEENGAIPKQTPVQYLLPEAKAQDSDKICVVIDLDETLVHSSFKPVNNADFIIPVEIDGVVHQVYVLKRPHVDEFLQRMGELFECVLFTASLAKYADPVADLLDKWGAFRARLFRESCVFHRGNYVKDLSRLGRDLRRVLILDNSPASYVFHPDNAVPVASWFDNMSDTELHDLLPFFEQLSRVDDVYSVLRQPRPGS", "experiment": "CTDSP1 inhibitors, concentration-response, biochemical, absorbance readout, ultra-high-throughput screen actives (AID 540297)", "format": "functional"}, "[2]": {"target": "Nonstructural protein 1 (Influenza A virus, UniProt Q194T2)", "sequence (Q194T2 whole entry)": "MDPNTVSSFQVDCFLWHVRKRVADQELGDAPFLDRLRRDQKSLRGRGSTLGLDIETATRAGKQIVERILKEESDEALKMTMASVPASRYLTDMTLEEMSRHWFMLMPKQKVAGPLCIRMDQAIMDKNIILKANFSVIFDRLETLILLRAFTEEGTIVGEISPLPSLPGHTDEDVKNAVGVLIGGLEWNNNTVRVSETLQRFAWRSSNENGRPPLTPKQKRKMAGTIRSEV", "format": "functional, Influenza A virus (A/California/07/2009(H1N1))"}, "[3]": {"target": "Caspase-6 (Homo sapiens, UniProt P55212)", "sequence (P55212 24-179 limits assumed)": "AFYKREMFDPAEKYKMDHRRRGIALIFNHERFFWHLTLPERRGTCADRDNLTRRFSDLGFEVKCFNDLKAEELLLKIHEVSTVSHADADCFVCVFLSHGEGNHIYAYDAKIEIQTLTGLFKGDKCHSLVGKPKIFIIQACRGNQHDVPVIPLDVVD", "sequence (P55212 194-293 limits assumed)": "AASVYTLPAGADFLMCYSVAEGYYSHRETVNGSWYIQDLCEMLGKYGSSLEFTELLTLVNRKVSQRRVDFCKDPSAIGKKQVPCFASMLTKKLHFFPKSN", "experiment": "inhibition of CASP6 peptide cleavage – biochemical, VEID-R110 fluorescence, cherry-pick, dose response (AID 720632)"}, "[4]": {"target": "Genome polyprotein (dengue virus type 2, UniProt P29990)", "sequence (P29990 2492-3391 limits assumed)": "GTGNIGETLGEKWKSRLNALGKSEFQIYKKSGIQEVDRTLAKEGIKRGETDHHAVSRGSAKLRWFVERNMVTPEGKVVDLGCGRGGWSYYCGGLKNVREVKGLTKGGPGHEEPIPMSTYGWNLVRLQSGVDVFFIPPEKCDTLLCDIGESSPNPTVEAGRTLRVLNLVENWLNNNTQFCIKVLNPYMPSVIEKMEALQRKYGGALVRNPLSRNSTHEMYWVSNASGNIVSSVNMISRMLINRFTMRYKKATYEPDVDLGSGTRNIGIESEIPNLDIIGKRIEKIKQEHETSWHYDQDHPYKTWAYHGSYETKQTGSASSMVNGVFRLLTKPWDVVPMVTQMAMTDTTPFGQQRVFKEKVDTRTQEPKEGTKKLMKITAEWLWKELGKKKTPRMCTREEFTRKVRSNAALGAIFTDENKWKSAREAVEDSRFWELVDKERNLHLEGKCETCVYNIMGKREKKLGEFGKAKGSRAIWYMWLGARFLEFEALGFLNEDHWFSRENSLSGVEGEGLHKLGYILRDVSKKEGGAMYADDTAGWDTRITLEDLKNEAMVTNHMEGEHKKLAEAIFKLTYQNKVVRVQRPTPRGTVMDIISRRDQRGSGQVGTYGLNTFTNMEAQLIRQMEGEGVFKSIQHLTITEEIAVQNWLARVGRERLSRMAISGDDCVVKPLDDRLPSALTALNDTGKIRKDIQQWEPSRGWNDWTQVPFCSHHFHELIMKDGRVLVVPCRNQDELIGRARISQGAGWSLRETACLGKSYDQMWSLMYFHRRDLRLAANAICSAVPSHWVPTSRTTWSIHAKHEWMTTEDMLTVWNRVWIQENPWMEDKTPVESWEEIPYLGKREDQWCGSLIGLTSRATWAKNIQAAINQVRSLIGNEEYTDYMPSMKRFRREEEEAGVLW", "experiment": "flavivirus cap methylation enzyme inhibition – biochemical, confirmation dose response, primary screen (AID 588689)", "format": "functional"}, "[5]": {"target": "T2, ORF 73 (Human herpesvirus 8, UniProt O40947)", "T2 sequence (O40947 whole entry)": "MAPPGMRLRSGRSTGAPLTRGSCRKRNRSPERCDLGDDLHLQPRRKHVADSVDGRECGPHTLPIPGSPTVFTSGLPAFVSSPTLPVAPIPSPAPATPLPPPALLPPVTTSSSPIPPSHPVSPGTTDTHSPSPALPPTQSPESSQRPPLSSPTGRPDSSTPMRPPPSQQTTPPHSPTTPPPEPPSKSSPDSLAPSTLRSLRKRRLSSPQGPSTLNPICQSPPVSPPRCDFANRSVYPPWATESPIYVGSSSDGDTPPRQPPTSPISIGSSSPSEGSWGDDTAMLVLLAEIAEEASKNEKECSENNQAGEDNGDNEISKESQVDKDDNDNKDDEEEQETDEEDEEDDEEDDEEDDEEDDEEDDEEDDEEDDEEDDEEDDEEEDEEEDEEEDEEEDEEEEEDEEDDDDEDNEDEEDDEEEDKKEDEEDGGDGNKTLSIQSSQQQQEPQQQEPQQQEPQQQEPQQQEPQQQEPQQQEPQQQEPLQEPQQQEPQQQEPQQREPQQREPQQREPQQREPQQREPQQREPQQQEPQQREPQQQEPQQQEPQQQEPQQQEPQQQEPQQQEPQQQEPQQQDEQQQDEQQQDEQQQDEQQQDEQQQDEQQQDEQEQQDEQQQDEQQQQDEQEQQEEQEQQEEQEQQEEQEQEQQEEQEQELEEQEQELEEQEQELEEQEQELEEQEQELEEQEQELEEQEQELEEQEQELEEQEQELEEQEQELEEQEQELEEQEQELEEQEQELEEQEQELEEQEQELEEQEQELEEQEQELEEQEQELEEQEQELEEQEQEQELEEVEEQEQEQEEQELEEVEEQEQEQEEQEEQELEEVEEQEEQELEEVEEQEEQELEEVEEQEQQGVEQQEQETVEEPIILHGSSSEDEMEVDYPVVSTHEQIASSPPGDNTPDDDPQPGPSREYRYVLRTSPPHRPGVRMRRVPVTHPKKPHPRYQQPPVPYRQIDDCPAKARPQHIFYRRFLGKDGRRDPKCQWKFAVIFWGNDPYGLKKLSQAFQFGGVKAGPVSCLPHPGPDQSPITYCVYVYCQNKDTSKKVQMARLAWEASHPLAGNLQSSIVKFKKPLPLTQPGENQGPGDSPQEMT", "experiment": "KSHV LANA DNA-binding disruption – biochemical, fluorescence polarization, cherry-picked samples, dose response (AID 504725);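 note: fluorescence polarization of a labeled DNA duplex reporting LANA DNA binding; potency is for inhibitors that block LANA binding to the DNA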", "parameters": "species or system Human gammaherpesvirus 8"}, "[6]": {"system": "HeLa", "experiment": "viability loss in HeLa cells – cell-based, 24 h, cherry-picked samples, cytotoxicity control, dose response (AID 504726)", "format": "functional", "conditions": "Homo sapiens"}, "[7]": {"experiment": "viability loss in HeLa cells – cytotoxicity control for MgcRacGAP inhibitor project, dose response (AID 624300)", "format": "functional"}, "[8]": {"target": "Intestinal-type alkaline phosphatase (Homo sapiens, UniProt P09923)", "sequence (P09923 whole entry)": "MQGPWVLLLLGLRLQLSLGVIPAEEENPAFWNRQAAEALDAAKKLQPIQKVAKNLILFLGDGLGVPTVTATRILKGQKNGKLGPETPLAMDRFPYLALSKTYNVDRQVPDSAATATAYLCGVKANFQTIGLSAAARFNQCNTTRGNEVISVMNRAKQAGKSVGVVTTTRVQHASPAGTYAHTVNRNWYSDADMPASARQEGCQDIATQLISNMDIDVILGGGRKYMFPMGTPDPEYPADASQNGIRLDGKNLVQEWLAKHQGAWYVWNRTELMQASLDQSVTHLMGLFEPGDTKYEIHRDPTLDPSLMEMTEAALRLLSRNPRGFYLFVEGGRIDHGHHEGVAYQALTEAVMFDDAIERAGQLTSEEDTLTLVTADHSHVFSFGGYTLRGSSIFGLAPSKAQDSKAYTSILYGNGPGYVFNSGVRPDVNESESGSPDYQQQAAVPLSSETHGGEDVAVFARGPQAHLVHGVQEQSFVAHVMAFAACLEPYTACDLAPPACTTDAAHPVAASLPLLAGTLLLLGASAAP", "experiment": "Dose Response confirmation of uHTS hits from a small molecule inhibitors of human intestinal alkaline phosphatase via a luminescent assay. [Related pubchem assays (depositor defined):AID2544, AID2574]", "format": "functional"}, "[9]": {"experiment": "HIV-1 AD8 envelope cell-cell fusion blockers – cherry-pick, dose response (AID 652062);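 note: potency is for inhibitors of fusion seen as a drop in luminescence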", "format": "functional, cell-based"}, "[10]": {"experiment": "Luminescence Cell-Based Dose Response HTS to Identify Inhibitors of 5'UTR Stem-Loop Driven Prion Protein mRNA Translation in H4 Neuroglioblastoma Cells. [Related pubchem assays: 1827 (Project Summary), 1813 (Primary HTS)]", "format": "functional"}, "[11]": {"experiment": "blockers of HIV-1 ZM109 envelope-driven cell-cell fusion – HeLa effector, CEM target cells, luciferase, cherry-pick, dose response (AID 652058)", "format": "functional, cell-based"}, "[12]": {"experiment": "blockers of HIV-1 envelope-mediated cell-cell fusion – cherry-pick, dose response (AID 652057)", "format": "functional, cell-based"}, "[13]": {"experiment": "off-target signal loss in HeLa-CEM21 co-culture – HeLa F-luc CTL cells, cherry-picked, counter-screen for HIV-1 Env fusion inhibitor project, dose response (AID 652040);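 note: potency for signal decrease marking cytotoxic or nonspecific inhibition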", "format": "functional, cell-based"}, "[14]": {"experiment": "alpha-synuclein stem-loop luciferase translation blockers – H4 neuroglioma cells, luminescence, confirmation (AID 1988)", "format": "functional, cell-based"}, "[15]": {"experiment": "HEK-293T cell viability reduction – luminescence, B-cell screen hits, cytotoxicity control for BCR NF-kB inhibitor project, dose response (AID 489021);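 note: HEK-293T cells carrying an NF-kB luciferase reporter; cells exposed to compound for about 14 hours before viability readout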", "format": "functional, cell-based"}, "[16]": {"target": "Glucose-6-phosphate 1-dehydrogenase (Homo sapiens, UniProt P11413)", "sequence (P11413 whole entry)": "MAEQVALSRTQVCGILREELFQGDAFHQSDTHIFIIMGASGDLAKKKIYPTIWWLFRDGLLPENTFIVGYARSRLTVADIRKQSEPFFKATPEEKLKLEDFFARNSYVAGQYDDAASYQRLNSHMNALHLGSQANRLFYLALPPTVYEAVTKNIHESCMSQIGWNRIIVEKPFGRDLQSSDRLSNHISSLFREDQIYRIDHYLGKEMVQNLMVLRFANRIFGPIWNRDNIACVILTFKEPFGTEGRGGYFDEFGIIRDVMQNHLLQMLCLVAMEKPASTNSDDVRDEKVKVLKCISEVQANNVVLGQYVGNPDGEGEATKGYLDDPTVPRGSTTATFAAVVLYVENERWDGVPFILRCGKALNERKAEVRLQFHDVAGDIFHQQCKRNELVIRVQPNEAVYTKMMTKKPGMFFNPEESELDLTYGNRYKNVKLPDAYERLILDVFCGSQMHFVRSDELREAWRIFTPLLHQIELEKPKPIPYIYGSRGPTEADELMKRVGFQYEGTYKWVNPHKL", "experiment": "inhibition of Homo sapiens G6PD, dose series – biochemical, fluorescence, selectivity assay for P. falciparum G6PD inhibitor project, dose response (AID 504792)", "format": "functional"}, "[17]": {"target": "Melanin-concentrating hormone receptor 1 (Homo sapiens, UniProt Q99705)", "sequence (Q99705 whole entry)": "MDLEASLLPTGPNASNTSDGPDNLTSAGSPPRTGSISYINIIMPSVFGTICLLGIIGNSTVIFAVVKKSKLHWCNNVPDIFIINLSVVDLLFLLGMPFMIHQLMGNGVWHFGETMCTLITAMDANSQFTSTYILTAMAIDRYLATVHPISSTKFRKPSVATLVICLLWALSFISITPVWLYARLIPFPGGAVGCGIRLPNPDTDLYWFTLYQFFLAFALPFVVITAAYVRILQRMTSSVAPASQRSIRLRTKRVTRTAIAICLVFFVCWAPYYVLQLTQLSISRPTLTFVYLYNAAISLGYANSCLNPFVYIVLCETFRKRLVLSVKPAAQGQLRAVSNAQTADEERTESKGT", "experiment": "Late-stage fluorescence-based counterscreen for antagonists of the G-protein coupled receptor 7 (GPR7): cell-based dose response assay to identify antagonists of the melanin-concentrating hormone receptor 1 (MCHR1). [Related pubchem assays (depositor defined):AID1861, AID1880, AID1952, AID2148, AID2251, AID2257, AID485339]", "format": "functional"}, "[18]": {"target": "Beta-galactosidase (Escherichia coli, UniProt Q8VNN2)", "sequence (Q8VNN2 whole entry)": "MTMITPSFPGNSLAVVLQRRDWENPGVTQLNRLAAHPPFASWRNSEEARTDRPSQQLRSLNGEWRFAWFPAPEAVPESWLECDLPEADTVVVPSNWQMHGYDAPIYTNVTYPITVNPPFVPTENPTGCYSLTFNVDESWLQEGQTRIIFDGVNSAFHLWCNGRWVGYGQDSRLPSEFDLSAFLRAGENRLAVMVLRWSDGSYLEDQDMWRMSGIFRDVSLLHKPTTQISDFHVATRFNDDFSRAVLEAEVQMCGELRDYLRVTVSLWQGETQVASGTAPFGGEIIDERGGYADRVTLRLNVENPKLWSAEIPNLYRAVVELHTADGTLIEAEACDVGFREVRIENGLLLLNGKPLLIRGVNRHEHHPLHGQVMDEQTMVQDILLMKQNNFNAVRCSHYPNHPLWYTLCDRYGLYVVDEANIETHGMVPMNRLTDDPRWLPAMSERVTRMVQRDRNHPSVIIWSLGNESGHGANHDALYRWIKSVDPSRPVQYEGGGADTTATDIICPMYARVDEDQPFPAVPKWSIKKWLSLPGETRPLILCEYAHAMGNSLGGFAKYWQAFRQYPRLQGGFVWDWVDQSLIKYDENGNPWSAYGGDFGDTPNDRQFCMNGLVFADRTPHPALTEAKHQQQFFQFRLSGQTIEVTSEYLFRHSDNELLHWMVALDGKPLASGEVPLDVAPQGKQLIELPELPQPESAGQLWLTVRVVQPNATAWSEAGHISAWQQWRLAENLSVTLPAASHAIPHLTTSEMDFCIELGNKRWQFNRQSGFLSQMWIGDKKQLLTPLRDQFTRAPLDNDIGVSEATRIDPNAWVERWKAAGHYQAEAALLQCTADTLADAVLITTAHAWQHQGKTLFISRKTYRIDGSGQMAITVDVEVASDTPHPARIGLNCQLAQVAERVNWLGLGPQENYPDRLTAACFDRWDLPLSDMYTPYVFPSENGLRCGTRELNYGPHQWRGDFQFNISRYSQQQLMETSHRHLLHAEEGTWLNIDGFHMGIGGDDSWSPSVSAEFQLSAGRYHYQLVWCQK", "experiment": "detection-enzyme interference by beta-gal modulators – biochemical, E. coli enzyme, set 3, artefact control for CCR6 antagonist project, dose response (AID 504712)", "format": "functional"}, "[19]": {"system": "Vero", "experiment": "cells", "format": "functional", "conditions": "Chlorocebus sabaeus"}, "[20]": {"target": "C-C chemokine receptor type 6 (Homo sapiens, UniProt P51684)", "sequence (P51684 whole entry)": "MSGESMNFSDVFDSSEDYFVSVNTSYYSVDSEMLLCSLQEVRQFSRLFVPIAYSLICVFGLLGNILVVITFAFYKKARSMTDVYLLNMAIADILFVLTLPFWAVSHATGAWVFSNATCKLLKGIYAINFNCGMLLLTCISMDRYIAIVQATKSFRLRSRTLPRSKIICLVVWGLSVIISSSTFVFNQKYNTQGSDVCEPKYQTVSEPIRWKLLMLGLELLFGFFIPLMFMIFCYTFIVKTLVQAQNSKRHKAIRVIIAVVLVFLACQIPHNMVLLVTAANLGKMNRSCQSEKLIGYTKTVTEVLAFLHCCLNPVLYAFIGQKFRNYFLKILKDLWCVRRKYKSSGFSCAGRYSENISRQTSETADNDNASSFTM", "experiment": "antagonism of CCR6 beta-arrestin recruitment – cell-based, luminescent beta-arrestin readout, dose response (AID 504728)", "format": "functional"}}, "note": "Activity calls are given as the source filed them.", "data": [{"smiles": "O=C(O)Cc1ccc(N=Nc2c(O)c(C(=O)O)cc3ccccc23)cc1", "values": [{"measurement": "IC50", "setting": "[1]", "result": "3.6 µM (active)"}, {"measurement": "IC50", "setting": "[2]", "result": "46 µM (active)"}, {"measurement": "AC50", "setting": "[3]", "result": "7.16 µM (active)"}, {"measurement": "IC50", "setting": "[4]", "result": "68.1 µM (active)"}, {"measurement": "AC50", "setting": "[5]", "result": "33.6 µM (active)"}, {"measurement": "AC50", "setting": "[6]", "result": "303 µM (active)"}]}, {"smiles": "CC(=O)Nc1cccc(-c2csc(Nc3ccccn3)n2)c1", "values": [{"measurement": "CC50", "setting": "[7]", "result": "94.2 µM (active)"}, {"measurement": "IC50", "setting": "[8]", "result": "> 100 µM (inactive)"}]}, {"smiles": "OCCN1CCN(C(=S)c2ccc(-c3ccccc3)cc2)CC1", "values": [{"measurement": "AC50", "setting": "[9]", "result": "1.64 µM (active)"}, {"measurement": "EC50", "setting": "[10]", "result": "12.1 µM (active)"}, {"measurement": "AC50", "setting": "[11]", "result": "3.74 µM (active)"}, {"measurement": "AC50", "setting": "[12]", "result": "4.04 µM (active)"}, {"measurement": "AC50", "setting": "[13]", "result": "5.39 µM (active)"}, {"measurement": "EC50", "setting": "[14]", "result": "9.34 µM (active)"}, {"measurement": "IC50", "setting": "[15]", "result": "> 80 µM (inactive)"}, {"measurement": "IC50", "setting": "[16]", "result": "> 80 µM (inactive)"}]}, {"smiles": "CCOc1ccc(Oc2c(Cl)cnn(-c3ccc(C)cc3)c2=O)cc1", "values": [{"measurement": "IC50", "setting": "[17]", "result": "11 µM (inactive)"}]}, {"smiles": "COC(=O)c1ccccc1/N=C1\\C=C(NS(=O)(=O)c2cccs2)c2ccccc2C1=O", "values": [{"measurement": "IC50", "setting": "[2]", "result": "4.03 µM (active)"}, {"measurement": "IC50", "setting": "[18]", "result": "> 66.6 µM (inactive)"}, {"measurement": "CC50", "setting": "[19]", "result": "13.6 µM (active)"}, {"measurement": "IC50", "setting": "[20]", "result": "> 66.6 µM (inactive)"}, {"measurement": "IC50", "setting": "[16]", "result": "> 80 µM (inactive)"}]}]}
